Where two headings read alike, the source gives them in different places.
Tests used:
Solubility test = assay type: physicochemical; conditions: ordinary temperature
Description: To a constant amount (400 mg) of each compounds of present invention, a constant amount of demineralized water, methanol and ethanol were added separately, and the solution was stirred at ordinary temperature.

[1] = test system: HUVEC (human umbilical vein endothelial cell); test: Inhibiting activity on cell proliferation, SRB analysis (HUVEC); assay type: cell-based; conditions: HUVEC cells, 3 days with drug
Description: (§1) In order to compare the safety index (SI) of CPAE (calf pulmonary artery endothelial cell) with that of HUVEC (human umbilical vein endothelial cell), L5178Y lymphoma that was isolated from murine thymus was used. The safety index was defined as IC50 ratio of L5178Y against CPAE (IC50L5178Y/IC50CPAE). All cell lines, which had been kept in liquid nitrogen tank, were used after being thawed and subcultured 2˜3 times in T-flask. CPAE, HUVEC and L5178Y were cultured in MEM culture medium (20% FBS, 50˜100 μg/ml ECGS, 0.15% baking soda, 0.05 mg/ml gentamicin), M199 culture medium (20% FBS, 0.22% baking soda, 100 μg/ml heparin, 3 ng/ml bFGF, 0.05 mg/ml gentamicin) and RPMI 1640 culture medium (10% FBS, 0.2% baking soda, 0.05 mg/ml gentamicin), respectively, under the condition of 37° C. and 5% CO2.
(§2) The drug was prepared by being gradationally diluted to two or ten times by using PBS, 20 μl of the solution was added to each well of 96 well plate in triplicate. The cell, which is being incubated, was treated with trypsin to give cell suspension. The number of cell thereafter was counted. And 180 μl of the solution was inoculated to each well and cultured.
(§3) The cell was cultured with drugs for 3 days and then 50 μl of 50% TCA was added thereto (final concentration 10%). Subsequently the cell was fixed by being left alone at 4° C. for 1 hour. The well was washed 4 times by distilled water and then dried. After that 100 μl of SRB (Sulforhodamine B, Sigma Chemical Co.) solution (0.4% w/v in 1% acetic acid) was added thereto and then it was left alone at ordinary temperature for 30 minutes. Thereafter the well was washed 4 times by 1% acetic acid and dried. And then after adding 200 μl of 10 mM tris buffer, the absorbance at 570 nm was measured by automatic microplate reader (Model: Elx 808, Bio-Tek Instrument, INC). The viability was calculated from the ratio of the absorbance of the control to which drugs were not added and the well to which drugs were added.

[2] = Chemical stability test (HPLC purity); conditions: for 1 month Other peaks (%) / 1 month Parent peak (%) / Initial Other peaks (%) / Initial Parent peak (%): HPLC; for 1 month Other peaks (%) / 1 month Parent peak (%): air-tight vessel; for change of purity (%): initial vs 1 month at 40±2° C.
Description: Each compound of the present invention was kept in an air-tight vessel for 1 month at 40±2° C. and 75±5% of relative humidity. Thereafter the HPLC purity test was executed.
25 mL of the solution was precisely taken, and poured into 100 mL volumetric flask. Acetonitrile/20 mM ammonium acetate aqueous solution (50:50) was added thereto to be the total volume of 100 ml. The solution was filtrated, and the filtrate was used as a test liquid.
(2) Operational Condition of Instrument. • Column: Kromasil®C18 (UG 100 Å, 5 μm, 4.6 mm Φ×250 mm) • Column temperature: 30° C. • Mobil phase: 20 mM ammonium acetate (pH 4.2) buffer:acetonitrile (55:45) • Injection volume: 20 μL • Flow rate: 1.2 mL/min • Detector: UV light-absorption Spectrophotometer (detection wavelength: 306 nm)

L5178Y lymphoma = test: Inhibiting activity on cell proliferation, MTT analysis (L5178Y); assay type: cell-based, murine; conditions: L5178Y lymphoma cells, 3 days with drug
Description: as §1, §2
The tumor cell was cultured with drugs for 3 days and then 50 μl of MTT (3-(4,5-dimethylthiazole-2-yl)-2,5-diphenyl tetrazolium bromide, Sigma Chemical Co.) solution (2.5 mg/ml in PBS) was added thereto. And it was further cultured for 4 hours at 37° C. Culture medium was removed carefully. And after dissolving formazan crystal by adding 150 μl of DMSO, the absorbance at 570 nm was determined.

[3] = test system: CPAE (calf pulmonary artery endothelial cell); test: Inhibiting activity on cell proliferation, SRB analysis (CPAE); assay type: cell-based; conditions: for IC50: CPAE cells, 3 days with drug, SRB, read-out: IC50 (nM) CAPE; for Selectivity Index (L5178Y/CAPE): IC50 L5178Y / IC50 CPAE
Description: as §1, §2, §3

[4] = 1 month at 40±2° C., 75±5% relative humidity
[5] = Bos taurus, Endothelial cell, 72 h

CO[C@@H]1[C@H](OC(=O)NC(=O)CCl)CC[C@]2(CO2)[C@H]1[C@@]1(C)O[C@@H]1CC=C(C)C [TNP-470, O-chloroacetylcarbamoylfumagillol, reference compound]
The amount of solvent to dissolve 1 g of the compounds (ml), demineralized water (Solubility test): 876 mL | The amount of solvent to dissolve 1 g of the compounds (ml), ethanol (Solubility test): 250 mL | The amount of solvent to dissolve 1 g of the compounds (ml), methanol (Solubility test): 208 mL | IC50 ([1]; Homo sapiens, 72 h): 0.00896 nM | 1 month Other peaks (%) [2, 4]: 3.5% | 1 month Parent peak (%) [2, 4]: 96.5% | Initial Other peaks (%) [2]: 1.3% | Initial Parent peak (%) [2]: 98.7% | change of purity (%) ([2]; 75±5% relative humidity): 2.2% | IC50 (L5178Y lymphoma; Mus musculus, 72 h): 4300 nM | IC50 [3, 5]: 0.449 nM | Selectivity Index (L5178Y/CAPE) [3]: 3.85 × 10^3

CO[C@@H]1[C@H](OC(=O)/C=C/c2ccc(NCCO)cc2)CC[C@]2(CO2)[C@H]1[C@@]1(C)O[C@@H]1CC=C(C)C [Example 5, O-(4-(2-hydroxyethylamino)cinnamoyl)fumagillol]
The amount of solvent to dissolve 1 g of the compounds (ml), demineralized water (Solubility test): 132 mL | The amount of solvent to dissolve 1 g of the compounds (ml), ethanol (Solubility test): 60 mL | The amount of solvent to dissolve 1 g of the compounds (ml), methanol (Solubility test): 39 mL | IC50 ([1]; Homo sapiens, 72 h): 0.00104 nM | chemical stability compared to known compounds [2, 4]: more excellent chemical stability than TNP-470, CKD-732 and CKD-731 | 1 month Other peaks (%) [2, 4]: 1.5% | 1 month Parent peak (%) [2, 4]: 98.5% | Initial Other peaks (%) [2]: 0.8% | Initial Parent peak (%) [2]: 99.2% | change of purity (%) ([2]; 75±5% relative humidity): 0.7% | IC50 (L5178Y lymphoma; Mus musculus, 72 h): 7110 nM | IC50 [3, 5]: 0.0061 nM | Selectivity Index (L5178Y/CAPE) [3]: 1.16 × 10^6

COc1ccc(/C=C/C(=O)O[C@@H]2CC[C@]3(CO3)[C@@H]([C@@]3(C)O[C@@H]3CC=C(C)C)[C@@H]2OC)cc1OCCO [Example 4, O-(3-(2-hydroxyethoxy)-4-methoxycinnamoyl)fumagillol]
The amount of solvent to dissolve 1 g of the compounds (ml), demineralized water (Solubility test): 145 mL | The amount of solvent to dissolve 1 g of the compounds (ml), ethanol (Solubility test): 65 mL | The amount of solvent to dissolve 1 g of the compounds (ml), methanol (Solubility test): 49 mL | IC50 ([1]; Homo sapiens, 72 h): 0.00376 nM | change of purity (in words) [2, 4]: hardly showed a change of purity | chemical stability compared to known compounds [2, 4]: more excellent chemical stability than TNP-470, CKD-732 and CKD-731 | 1 month Other peaks (%) [2, 4]: 1.5% | 1 month Parent peak (%) [2, 4]: 98.5% | Initial Other peaks (%) [2]: 1.3% | Initial Parent peak (%) [2]: 98.7% | change of purity (%) ([2]; 75±5% relative humidity): 0.2% | IC50 (L5178Y lymphoma; Mus musculus, 72 h): 27300 nM | IC50 [3, 5]: 0.006 nM | Selectivity Index (L5178Y/CAPE) [3]: 4.53 × 10^6

CO[C@@H]1[C@H](OC(=O)/C=C/c2ccc(Cl)c(NCCO)c2)CC[C@]2(CO2)[C@H]1[C@@]1(C)O[C@@H]1CC=C(C)C [Example 7, O-(4-chloro-3-(2-hydroxyethylamino)cinnamoyl)fumagillol]
The amount of solvent to dissolve 1 g of the compounds (ml), demineralized water (Solubility test): 137 mL | The amount of solvent to dissolve 1 g of the compounds (ml), ethanol (Solubility test): 67 mL | The amount of solvent to dissolve 1 g of the compounds (ml), methanol (Solubility test): 42 mL | IC50 ([1]; Homo sapiens, 72 h): 0.0017 nM | chemical stability compared to known compounds [2, 4]: more excellent chemical stability than TNP-470, CKD-732 and CKD-731 | 1 month Other peaks (%) [2, 4]: 1.1% | 1 month Parent peak (%) [2, 4]: 98.9% | Initial Other peaks (%) [2]: 0.6% | Initial Parent peak (%) [2]: 99.4% | change of purity (%) ([2]; 75±5% relative humidity): 0.5% | IC50 (L5178Y lymphoma; Mus musculus, 72 h): 31000 nM | IC50 [3, 5]: 0.0065 nM | Selectivity Index (L5178Y/CAPE) [3]: 4.77 × 10^6

CO[C@@H]1[C@H](OC(=O)C=Cc2ccc(OCCN(C)C)cc2)CC[C@]2(CO2)[C@H]1[C@@]1(C)O[C@@H]1CC=C(C)C [CKD-732, O-(4-dimethylaminoethoxycinnamoyl)fumagillol, reference compound]
The amount of solvent to dissolve 1 g of the compounds (ml), demineralized water (Solubility test): 1100 mL | The amount of solvent to dissolve 1 g of the compounds (ml), ethanol (Solubility test): 219 mL | The amount of solvent to dissolve 1 g of the compounds (ml), methanol (Solubility test): 197 mL | IC50 [1]: 0.0066 nM | 1 month Other peaks (%) [2, 4]: 4.6% | 1 month Parent peak (%) [2, 4]: 95.4% | Initial Other peaks (%) [2]: 0.8% | Initial Parent peak (%) [2]: 99.2% | change of purity (%) ([2]; 75±5% relative humidity): 3.8% | IC50 (L5178Y lymphoma): 8720 nM | IC50 [3]: 0.648 nM | Selectivity Index (L5178Y/CAPE) [3]: 1.35 × 10^4

CO[C@@H]1[C@H](OC(=O)/C=C/c2cccc(NCCO)c2)CC[C@]2(CO2)[C@H]1[C@@]1(C)O[C@@H]1CC=C(C)C [Example 6, O-(3-(2-hydroxyethylamino)cinnamoyl)fumagillol]
The amount of solvent to dissolve 1 g of the compounds (ml), demineralized water (Solubility test): 130 mL | The amount of solvent to dissolve 1 g of the compounds (ml), ethanol (Solubility test): 58 mL | The amount of solvent to dissolve 1 g of the compounds (ml), methanol (Solubility test): 31 mL | IC50 ([1]; Homo sapiens, 72 h): 0.00222 nM | chemical stability compared to known compounds [2, 4]: more excellent chemical stability than TNP-470, CKD-732 and CKD-731 | 1 month Other peaks (%) [2, 4]: 1.9% | 1 month Parent peak (%) [2, 4]: 98.1% | Initial Other peaks (%) [2]: 1.4% | Initial Parent peak (%) [2]: 98.6% | change of purity (%) ([2]; 75±5% relative humidity): 0.5% | IC50 (L5178Y lymphoma; Mus musculus, 72 h): 27700 nM | IC50 [3, 5]: 0.0071 nM | Selectivity Index (L5178Y/CAPE) [3]: 3.88 × 10^6

COc1cc(/C=C/C(=O)O[C@@H]2CC[C@]3(CO3)[C@@H]([C@@]3(C)O[C@@H]3CC=C(C)C)[C@@H]2OC)cc(OC)c1Oc1ccc(CO)cc1 [Example 9, O-(3,5-dimethoxy-4-(4-hydroxymethylphenoxy)cinnamoyl)fumagillol]
IC50 ([1]; Homo sapiens, 72 h): 0.00361 nM | IC50 (L5178Y lymphoma; Mus musculus, 72 h): 61200 nM | IC50 [3, 5]: 0.811 nM | Selectivity Index (L5178Y/CAPE) [3]: 7.54 × 10^4

Source: patent publication US20100056623A1, “FUMAGILLOL DERIVATIVES OR METHOD FOR PREPARATION OF FUMAGILLOL DERIVATIVES, AND PHARMACEUTICAL COMPOSITIONS COMPRISING THE SAME” (CHONG KUN DANG PHARMACEUTICAL CORP., priority 2005, published 2010)
